Each structure is given as a SMILES string.

Consider 37 molecules from US11091501B2, “Heterocyclic compounds as RSV inhibitors” (Enanta Pharmaceuticals, Inc., priority 2017, dated 2021).

For the assay, the system named is Human RSV-A (“Long” strain). The assay is described as follows: RSV in vitro cytoprotection assay (CPE, ATPlite) in HEp-2 cells. The following applies: human respiratory syncytial virus, 96 h; HEp-2 cells, 4-day incubation, ATPlite readout; read-out: Human RSV-A (“Long” strain) EC50. It is filed as cell-based. Put shortly: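 HEp-2 cells (8,000/well) given 2-fold serial compound dilutions in duplicate, then infected with sucrose-stabilised RSV-A Long stock. After 4 days, cell viability read by ATPlite luminescence, with a parallel uninfected plate for cytotoxicity. EC50 binned A<0.01 μM, B 0.01-0.05 μM, C>0.05 μM.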
Background: In ATP-based viability assays light output follows the ATP content of the culture.
For orientation: EC50 means the concentration at which the effect is half-maximal. Turning to `Cc1cnc(N2CC3(CCOCC3)C2)c(C(=O)Nc2ccc(C(=O)N3CCc4c(sc(C(=O)Nc5ncccc5C)c4F)-c4ccccc43)cc2)c1` [Example 226], the EC50 is less than 10 nM.

`Cc1ccnc(NC(=O)c2sc3c(c2F)CCN(C(=O)c2ccc(NC(=O)c4cc(C)cnc4N4CC5(CCOCC5)C4)cc2)c2ccccc2-3)c1` [Example 227]: the EC50 lay in the range of 10 to 50 nM. For `Cc1ccc(NC(=O)c2sc3c(c2F)CCN(C(=O)c2ccc(NC(=O)c4cc(C)cnc4N4CC5(CCOCC5)C4)cc2)c2ccccc2-3)nc1` [Example 228], the EC50 lay in the range of 10 to 50 nM.

Regarding `Cc1cnc(N2CC3(CCOCC3)C2)c(C(=O)Nc2ccc(C(=O)N3CCc4c(sc(C(=O)Nc5cccc(C)n5)c4F)-c4ccccc43)cc2)c1` [Example 229], the EC50 lay in the range of 10 to 50 nM. Turning to `Cc1cnc(NC(=O)c2sc3c(c2F)CCN(C(=O)c2ccc(NC(=O)c4cc(C)cnc4N4CC5(CCOCC5)C4)cc2)c2ccccc2-3)c(F)c1` [Example 230], the EC50 is less than 10 nM.

As for `Cc1cnc(N2CC3(CCOCC3)C2)c(C(=O)Nc2ccc(C(=O)N3CCc4c(sc(C(=O)Nc5ncccc5C(F)(F)F)c4F)-c4ccccc43)cc2)c1` [Example 231], the EC50 is less than 10 nM.

In the case of `Cc1cnc(N2CC3(CCOCC3)C2)c(C(=O)Nc2ccc(C(=O)N3CCc4c(sc(C(=O)Nc5cccc(C(F)(F)F)n5)c4F)-c4ccccc43)cc2)c1` [Example 232], the EC50 is greater than 50 nM.

Consider `O=C(Nc1ccc(C(=O)N2CCc3c(sc(C(=O)Nc4c(F)cccc4F)c3F)-c3ccccc32)cc1)c1cc2c(nc1N1CC3(CCOCC3)C1)CCC2` [Example 233], for which the EC50 was less than 10 nM.

Turning to `Cc1cnc(N2CC3(CCOCC3)C2)c(C(=O)Nc2ccc(C(=O)N3CCc4cc(C(=O)Nc5c(F)cccc5F)oc4-c4ccc(F)cc43)cc2)c1` [Example 234], the half-maximal effective concentration (EC50) was less than 10 nM. As to `Cc1cnc(N2CC3(CCOCC3)C2)c(C(=O)Nc2ccc(C(=O)N3CCc4cc(C(=O)Nc5c(F)cc(F)cc5Cl)oc4-c4ccc(F)cc43)cc2)c1` [Example 235], the EC50 is less than 10 nM.

On to `Cc1cnc(N2CC3(CCOCC3)C2)c(C(=O)Nc2ccc(C(=O)N3CCc4cc(C(=O)Nc5c(Cl)cccc5Cl)oc4-c4ccc(F)cc43)cc2)c1` [Example 236], for which the 50% effective concentration (EC50) was less than 10 nM. As to `Cc1cnc(N2CC3(CCOCC3)C2)c(C(=O)Nc2ccc(C(=O)N3CCc4cc(C(=O)Nc5c(F)cccc5Cl)oc4-c4ccc(F)cc43)cc2)c1` [Example 237], the EC50 was less than 10 nM. Consider `O=C(Nc1c(F)cccc1Cl)c1cc2c(o1)-c1ccc(F)cc1N(C(=O)c1ccc(NC(=O)c3cc4c(nc3N3CC5(CCOCC5)C3)CCCC4)cc1)CC2` [Example 238], for which the EC50 was in the range of 10 to 50 nM. As to `O=C(Nc1c(F)cccc1F)c1cc2c(o1)-c1ccc(F)cc1N(C(=O)c1ccc(NC(=O)c3cc4c(nc3N3CC5(CCOCC5)C3)CCC4)cc1)CC2` [Example 239], the 50% effective concentration (EC50) was less than 10 nM. For `O=C(Nc1c(F)cccc1Cl)c1cc2c(o1)-c1ccc(F)cc1N(C(=O)c1ccc(NC(=O)c3cc4c(nc3N3CC5(CCOCC5)C3)CCC4)cc1)CC2` [Example 240], the EC50 was less than 10 nM. For the molecule `O=C(Nc1c(F)cccc1F)c1cc2c(o1)-c1ccc(F)cc1N(C(=O)c1ccc(NC(=O)c3cc4c(nc3N3CC5(CCOCC5)C3)CCCC4)cc1)CC2` [Example 241], the EC50 is less than 10 nM. Regarding `O=C(Nc1c(Cl)cccc1Cl)c1cc2c(o1)-c1ccc(F)cc1N(C(=O)c1ccc(NC(=O)c3cc4c(nc3N3CC5(CCOCC5)C3)CCCC4)cc1)CC2` [Example 242], the EC50 is less than 10 nM.

In the case of `Cc1cnc(N2CC3(CCOCC3)C2)c(C(=O)Nc2ccc(C(=O)N3CCc4cc(-c5nc6ccccc6[nH]5)oc4-c4ccc(F)cc43)cc2)c1` [Example 243], the EC50 was less than 10 nM.

`O=C(Nc1ccc(C(=O)N2CCc3cc(-c4nc5ccccc5[nH]4)oc3-c3ccc(F)cc32)cc1)c1cc2c(nc1N1CC3(CCOCC3)C1)CCC2` [Example 244]: the EC50 was less than 10 nM. Consider `O=C(Nc1ccc(C(=O)N2CCc3cc(-c4nc5ccccc5[nH]4)oc3-c3ccc(F)cc32)cc1)c1cc2c(nc1N1CC3(CCOCC3)C1)CCCC2` [Example 245], for which the EC50 lay within 10 to 50 nM.

In the case of `O=C(Nc1ccccc1)c1cc2c(o1)-c1ccccc1N(C(=O)c1ccc(NC(=O)c3cc4c(nc3N3CC5(CCOCC5)C3)CCC4)cc1)CC2` [Example 246], the EC50 was less than 10 nM. With `O=C(Nc1c(F)cccc1F)c1cc2c(o1)-c1ccccc1N(C(=O)c1ccc(NC(=O)c3cc4c(nc3N3CC5(CCOCC5)C3)CCC4)cc1)CC2` [Example 247], the EC50 was less than 10 nM. Take `O=C(Nc1c(F)cccc1C(F)(F)F)c1cc2c(o1)-c1ccccc1N(C(=O)c1ccc(NC(=O)c3cc4c(nc3N3CC5(CCOCC5)C3)CCC4)cc1)CC2` [Example 248]: the EC50 was less than 10 nM. For `O=C(Nc1c(F)cccc1Cl)c1cc2c(o1)-c1ccccc1N(C(=O)c1ccc(NC(=O)c3cc4c(nc3N3CC5(CCOCC5)C3)CCC4)cc1)CC2` [Example 249], the EC50 was less than 10 nM. The value for `Cc1cccc(F)c1NC(=O)c1cc2c(o1)-c1ccccc1N(C(=O)c1ccc(NC(=O)c3cc4c(nc3N3CC5(CCOCC5)C3)CCC4)cc1)CC2` [Example 250] was less than 10 nM. The value for `O=C(Nc1c(Cl)cccc1Cl)c1cc2c(o1)-c1ccccc1N(C(=O)c1ccc(NC(=O)c3cc4c(nc3N3CC5(CCOCC5)C3)CCC4)cc1)CC2` [Example 251] was less than 10 nM; that for `Cc1cccc(C)c1NC(=O)c1cc2c(o1)-c1ccccc1N(C(=O)c1ccc(NC(=O)c3cc4c(nc3N3CC5(CCOCC5)C3)CCC4)cc1)CC2` [Example 252] was less than 10 nM; that for `O=C(Nc1c(F)cc(F)cc1F)c1cc2c(o1)-c1ccccc1N(C(=O)c1ccc(NC(=O)c3cc4c(nc3N3CC5(CCOCC5)C3)CCC4)cc1)CC2` [Example 253] was less than 10 nM. On to `Cc1ccc(C(=O)Nc2ccc(C(=O)N3CCc4cc(C(=O)Nc5c(F)cccc5F)oc4-c4ccccc43)cc2)c(N2CC3(CCOCC3)C2)n1` [Example 254], for which the EC50 is less than 10 nM. Next, `O=C(Nc1ccccc1F)c1cc2c(o1)-c1ccccc1N(C(=O)c1ccc(NC(=O)c3cc4c(nc3N3CC5(CCOCC5)C3)CCC4)cc1)CC2` [Example 255]: less than 10 nM; `Cc1ccc(C(=O)Nc2ccc(C(=O)N3CCc4cc(C(=O)Nc5c(C)cccc5F)oc4-c4ccccc43)cc2)c(N2CC3(CCOCC3)C2)n1` [Example 256]: less than 10 nM; `Cc1ccc(C(=O)Nc2ccc(C(=O)N3CCc4cc(C(=O)Nc5c(F)cc(F)cc5F)oc4-c4ccccc43)cc2)c(N2CC3(CCOCC3)C2)n1` [Example 257]: less than 10 nM.

Take `Cc1ccc(C(=O)Nc2ccc(C(=O)N3CCc4cc(C(=O)Nc5ccccc5F)oc4-c4ccccc43)cc2)c(N2CC3(CCOCC3)C2)n1` [Example 258]: the EC50 is less than 10 nM. Take `Cc1ccc(C(=O)Nc2ccc(C(=O)N3CCc4cc(C(=O)Nc5c(F)cccc5Cl)oc4-c4ccccc43)cc2)c(N2CC3(CCOCC3)C2)n1` [Example 259]: the EC50 was less than 10 nM.

As to `O=C(Nc1ccc(C(=O)N2CCc3cc(-c4nc5ccccc5[nH]4)oc3-c3ccccc32)cc1)c1cc2c(nc1N1CC3(CCOCC3)C1)CCC2` [Example 260], the EC50 is less than 10 nM.

In the case of `Cc1cnc(N2CC3(CCOCC3)C2)c(C(=O)Nc2ccc(C(=O)N3CCc4sc(C(=O)Nc5c(F)cccc5F)cc4-c4ccccc43)cc2)c1` [Example 261], the EC50 is less than 10 nM.

Take `Cc1cnc(N2CC3(CCOCC3)C2)c(C(=O)Nc2ccc(C(=O)N3CCc4sc(-c5nc6ccccc6[nH]5)cc4-c4ccccc43)cc2)c1` [Example 262]: the EC50 is 10 to 50 nM.
